Assay [1] deals with T1, YpdA (Staphylococcus aureus, UniProt A0A0H2WWS2).
T1 construct: gene SACOL1520; full-length, His6-tagged, pET11b, E. coli BL21(DE3) pLysS, Ni-NTA purified, prereduced with DTT
The assay can be described thus: NADPH consumption at […] nm. The settings on record: 12.5 uM YpdA, 40 uM BSSB, 500 uM NADPH, 20 mM Tris, 1.25 mM EDTA, pH 8.0. Format: biochemical.

Assay [2] concerns the target T1, YpdA. The assay can be described thus: UV-visible spectrum of purified enzyme. The format is binding. To be noted: co-purified flavin, absorbance peaks at 375 and 450 nm.

SMILES strings stand for the structures.

T1 sequence (A0A0H2WWS2 entry or part of it): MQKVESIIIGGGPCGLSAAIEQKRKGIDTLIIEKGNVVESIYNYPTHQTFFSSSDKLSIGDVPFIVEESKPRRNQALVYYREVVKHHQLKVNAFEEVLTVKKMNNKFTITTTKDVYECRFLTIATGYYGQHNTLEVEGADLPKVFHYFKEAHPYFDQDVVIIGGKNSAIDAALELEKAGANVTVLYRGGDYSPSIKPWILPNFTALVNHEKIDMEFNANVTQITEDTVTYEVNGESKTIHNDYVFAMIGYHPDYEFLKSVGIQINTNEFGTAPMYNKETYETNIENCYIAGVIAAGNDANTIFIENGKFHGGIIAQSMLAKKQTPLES

Consider `NC(=O)C1=CN([C@@H]2O[C@H](COP(=O)(O)OP(=O)(O)OC[C@H]3O[C@@H](n4cnc5c(N)ncnc54)[C@H](OP(=O)(O)O)[C@@H]3O)[C@@H](O)[C@H]2O)C=CC1` [NADPH], for which the “NADPH consumption at 340 nm” value in assay [1] is on record as “Purified YpdA is able to reduce BSSB back to BSH with electrons from NADPH”.

Regarding `Cc1cc2nc3c(=O)[nH]c(=O)nc-3n(C[C@H](O)[C@H](O)[C@H](O)COP(=O)(O)OP(=O)(O)OC[C@H]3O[C@@H](n4cnc5c(N)ncnc54)[C@H](O)[C@@H]3O)c2cc1C` [FAD], the “UV-visible spectrum of purified enzyme” value in assay [2] is on record as “UV-visible spectrum revealed the presence of the FAD co-factor”.

Take `N[C@@H](CSSC[C@H](N)C(=O)N[C@H]1[C@@H](O[C@@H](CC(=O)O)C(=O)O)O[C@H](CO)[C@@H](O)[C@@H]1O)C(=O)N[C@H]1[C@@H](O[C@@H](CC(=O)O)C(=O)O)O[C@H](CO)[C@@H](O)[C@@H]1O` [BSSB]: the “NADPH consumption at 340 nm” value in assay [1] is “Incubation of YpdA protein with BSSB resulted in significant and fast consumption of NADPH”.

The values are drawn from publication PMC6591457, “Staphylococcus aureus Uses the Bacilliredoxin (BrxAB)/Bacillithiol Disulfide Reductase (YpdA) Redox Pathway to Defend Against Oxidative Stress Under Infections” (Frontiers in Microbiology, 2019).
